Measurements reported in patent US8674107B2, “Crystal of anti-bacterial compound” (priority 2010, dated 2014).
Structures can show the parent of a compound that is named as a salt.

Experiments:
Type in all cases: physicochemical
[1] = Evaluation of moisture absorption and desorption properties (microbalance); settings: 25° C.; for moisture absorption and desorption patterns: 10-90% RH; for change in weight (moisture absorption and desorption properties): measurement range 10-90% RH
Description: Of the various samples prepared in Example 1, the monohydrochloride dihydrate, monohydrochloride monohydrate, and sulfate were separately placed in quartz holders and examined for their moisture absorption and desorption behaviors using a microbalance under the following measurement conditions:
Measurement conditions for moisture absorption and desorption behavior (sample volume: approximately 10 mg, measurement range: 10-90% RH, measurement temperature: 25° C., variable: within 0.03%, varying length of time: 10 minutes, apparatus: atmospheric pressure-type automatic water vapor sorption instrument manufactured by VTI Corp.)

[2] = Evaluation of solubility in test solutions (HPLC); settings: for Concentration: 37° C., total of 30 minutes
Description: The monohydrochloride dihydrate prepared in Example 1 and the free form (anhydrous form) were used in the following evaluation of solubility: an appropriate amount of each sample was added to 2 mL each of the test solutions (water, the JP 1st fluid for the disintegration test (JP1), and the JP 2nd fluid for the disintegration test (JP2)), fasted state simulated intestinal fluid (FaSSIF), and fed state simulated intestinal fluid (FeSSIF), and incubated in a thermobath of 37° C. Each solution was shaken in a vortex mixer for 30 seconds every 5 minutes (for a total of 30 minutes). Then, the supernatant was filtered through a membrane filter (pore size: 0.45 μm). After appropriate dilution with an eluent, the diluted solution was subjected to HPLC analysis to calculate concentration.
Measurement conditions for HPLC;
Column: Waters Symmetry C18 3.5 um, 4.6×100 mm
Column temperature: 40° C.
Mobile phase: 50 mM KH2PO4-K2HPO4 (pH 7.0)/MeCN=8:2

[3] = Evaluation of chemical stability (storage under dry-heat or wet-heat, HPLC); settings: 2 weeks
Description: Approximately 2 mg each of various samples prepared in Example 1 was weighed into an aluminum pan for thermal analysis and stored under dry-heat (60° C., 0% RH) or wet-heat (40° C., 75% RH) conditions. One and two weeks later, each sample was collected, and the change in weight was determined. Then, the whole amount was dissolved in 20 mL of an eluent and subjected to HPLC analysis.

[4] = listed as monohydrochloride dihydrate of compound A, monohydrochloride dihydrate

Cc1c(N2C[C@]3(N)CCC[C@]3(F)C2)c(F)cc2c(=O)c(C(=O)O)cn([C@@H]3C[C@@H]3F)c12 [Monohydrochloride dihydrate, 7-[(1R,5S)-1-amino-5-fluoro-3-azabicyclo[3.3.0]octan-3-yl]-6-fluoro-1-[(1R,2S)-2-fluorocyclopropan-1-yl]-1,4-dihydro-8-methyl-4-oxoquinoline-3-carboxylic acid monohydrochloride dihydrate]
moisture absorption and desorption patterns [1, 4]: well consistent
moisture absorption and desorption patterns ([1]; monohydrochloride dihydrate): well consistent
change in weight (moisture absorption and desorption properties) [1, 4]: ≤ 2%
solubility at 30 min ([2]; 37 °C, thermodynamic from solid, in each of water, JP 1st fluid, JP 2nd fluid, FaSSIF and FeSSIF): ≥ 2000 µg/mL
Concentration ([2]; Fasted state simulated intestinal fluid (FaSSIF), monohydrochloride dihydrate): >2000 µg/mL
Concentration ([2]; Fed state simulated intestinal fluid (FeSSIF)): >2000 µg/mL
Concentration ([2]; JP 1st fluid for dissolution test): >2000 µg/mL
Concentration ([2]; JP 2nd fluid for dissolution test, monohydrochloride dihydrate): >2000 µg/mL
Concentration ([2]; Water, monohydrochloride dihydrate): >2000 µg/mL
Increase in related substances (%) ([3]; 60° C./0% RH, listed as monohydrochloride dihydrate of compound A, monohydrochloride dihydrate): 0.02%
Increase in related substances (%) ([3]; 60° C./0% RH, monohydrochloride dihydrate): 0.02%

Cc1c(N2C[C@]3(N)CCC[C@]3(F)C2)c(F)cc2c(=O)c(C(=O)O)cn([C@@H]3C[C@@H]3F)c12 [sulfate of compound A]
moisture absorption and desorption patterns [1]: well consistent
change in weight (moisture absorption and desorption properties) [1]: ≤ 2%
change in weight (moisture absorption and desorption behaviors) ([1]; relative humidity of 40% to 60%): ≤ 2%

Cc1c(N2C[C@]3(N)CCC[C@]3(F)C2)c(F)cc2c(=O)c(C(=O)O)cn([C@@H]3C[C@@H]3F)c12 [Free form (anhydride), 7-[(1R,5S)-1-amino-5-fluoro-3-azabicyclo[3.3.0]octan-3-yl]-6-fluoro-1-[(1R,2S)-2-fluorocyclopropan-1-yl]-1,4-dihydro-8-methyl-4-oxoquinoline-3-carboxylic acid]
Concentration ([2]; Fasted state simulated intestinal fluid (FaSSIF)): 319 µg/mL
Concentration ([2]; JP 2nd fluid for dissolution test): 352 µg/mL
Concentration ([2]; Water): 280 µg/mL
Increase in related substances (%) ([3]; 40° C./75% RH): 0.01%
Increase in related substances (%) ([3]; 60° C./0% RH): 0.01%

Cc1c(N2C[C@]3(N)CCC[C@]3(F)C2)c(F)cc2c(=O)c(C(=O)O)cn([C@@H]3C[C@@H]3F)c12 [monohydrochloride monohydrate]
moisture absorption and desorption patterns ([1]; monohydrate): substantially the same
change in weight (moisture absorption and desorption properties) ([1]; monohydrate): ≤ 1%
